pIC50: −log10 of the molar value.
Key:
[1] = biological target: T1, 11-beta-hydroxysteroid dehydrogenase 1 (Homo sapiens, UniProt P28845); test: Inhibition of full-length human 11beta-HSD1 expressed in HEK293 microsomal fraction using [3H]cortisone as substrate after 2 hr by scintillation proximity assay
Target sequence in this assay (P28845 whole entry): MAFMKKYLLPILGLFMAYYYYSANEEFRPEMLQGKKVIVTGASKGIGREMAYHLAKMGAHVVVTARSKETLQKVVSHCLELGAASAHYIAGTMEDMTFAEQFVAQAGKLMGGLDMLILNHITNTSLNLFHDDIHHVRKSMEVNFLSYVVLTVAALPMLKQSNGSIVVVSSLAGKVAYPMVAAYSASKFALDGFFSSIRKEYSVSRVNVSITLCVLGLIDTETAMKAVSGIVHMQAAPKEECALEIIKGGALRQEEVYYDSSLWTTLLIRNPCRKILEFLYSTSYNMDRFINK

[2] = biological target: T2, 11-beta-hydroxysteroid dehydrogenase type 2 (Homo sapiens, UniProt P80365); test: Inhibition of full-length human 11beta-HSD2 expressed in HEK293 microsomal fraction using [3H]cortisone as substrate after 2 hr by scintillation proximity assay; format: cell-based
T2 sequence (P80365 whole entry): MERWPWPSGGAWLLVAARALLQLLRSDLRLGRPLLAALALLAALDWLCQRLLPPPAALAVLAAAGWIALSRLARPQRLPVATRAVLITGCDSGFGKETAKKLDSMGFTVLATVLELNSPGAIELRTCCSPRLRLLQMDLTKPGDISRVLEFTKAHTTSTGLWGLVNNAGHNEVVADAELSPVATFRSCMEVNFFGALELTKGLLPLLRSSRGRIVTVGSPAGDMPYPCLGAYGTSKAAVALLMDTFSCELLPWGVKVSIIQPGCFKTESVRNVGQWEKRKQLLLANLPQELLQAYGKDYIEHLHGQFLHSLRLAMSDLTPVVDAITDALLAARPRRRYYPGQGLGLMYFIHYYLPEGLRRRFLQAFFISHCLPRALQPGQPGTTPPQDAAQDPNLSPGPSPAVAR

[3] = biological target: 11-beta-hydroxysteroid dehydrogenase 1 (Mus musculus) (UniProt P50172); conditions: at 1 µM
11-beta-hydroxysteroid dehydrogenase 1 (Mus musculus), sequence (P50172 whole entry, looked up): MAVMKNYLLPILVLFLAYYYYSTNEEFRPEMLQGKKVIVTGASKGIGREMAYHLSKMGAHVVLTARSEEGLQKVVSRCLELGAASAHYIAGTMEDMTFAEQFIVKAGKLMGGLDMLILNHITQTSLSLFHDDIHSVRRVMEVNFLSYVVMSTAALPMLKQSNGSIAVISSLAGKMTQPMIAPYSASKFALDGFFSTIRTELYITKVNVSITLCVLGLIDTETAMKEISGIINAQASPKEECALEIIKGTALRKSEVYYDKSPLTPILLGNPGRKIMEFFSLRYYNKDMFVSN
Description: Inhibition of full-length mouse 11beta-HSD1 expressed in HEK293 microsomal fraction at 1 uM using [3H]cortisone as substrate after 1 hr by scintillation proximity assay relative to control

[4] = biological target: T1, 11-beta-hydroxysteroid dehydrogenase 1; conditions: HEK293, at 1 µM
Target sequence in this assay (P28845 whole entry, looked up): as the sequence (P28845 whole entry) above
Description: Inhibition of full-length human 11beta-HSD1 expressed in HEK293 microsomal fraction at 1 uM using [3H]cortisone as substrate after 2 hr by scintillation proximity assay relative to control

[5] = biological target: T3, 11-beta-hydroxysteroid dehydrogenase 1 (Mus musculus, UniProt P50172); test: Inhibition of full-length mouse 11beta-HSD1 expressed in HEK293 microsomal fraction […] after 1 hr by scintillation proximity assay
T3 sequence (P50172 whole entry): as the sequence (P50172 whole entry, looked up) above

[6] = biological target: T4, 11-beta-hydroxysteroid dehydrogenase type 2 (Mus musculus, UniProt P51661); test: Inhibition of full-length mouse 11beta-HSD2 expressed in HEK293 microsomal fraction […] after 1 hr by scintillation proximity assay
T4 sequence (P51661 whole entry): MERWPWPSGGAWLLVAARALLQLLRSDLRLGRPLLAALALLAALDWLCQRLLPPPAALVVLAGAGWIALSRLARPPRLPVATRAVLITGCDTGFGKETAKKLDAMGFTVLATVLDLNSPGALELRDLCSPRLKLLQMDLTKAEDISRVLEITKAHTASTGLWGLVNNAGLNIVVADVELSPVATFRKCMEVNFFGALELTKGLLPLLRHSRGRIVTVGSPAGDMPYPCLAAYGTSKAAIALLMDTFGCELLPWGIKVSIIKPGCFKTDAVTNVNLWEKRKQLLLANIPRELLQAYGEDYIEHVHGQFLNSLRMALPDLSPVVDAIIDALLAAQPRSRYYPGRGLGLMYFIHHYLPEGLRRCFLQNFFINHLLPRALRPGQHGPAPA

[7] = biological target: T1, 11-beta-hydroxysteroid dehydrogenase 1; test: Inhibition of human N-terminal His-tagged 11beta-HSD1 expressed in Escherichia coli using cortisol as substrate by fluorescence-based assay
Target sequence in this assay (P28845 whole entry): as the sequence (P28845 whole entry) above

[8] = biological target: T3, 11-beta-hydroxysteroid dehydrogenase 1; test: Inhibition of mouse N-terminal His-tagged 11beta-HSD1 expressed in Escherichia coli using cortisol as substrate by fluorescence-based assay

Row | Compound | inhibition [3] [%] | other results
1 | CC1(C)[C@@H](O)CC[C@]2(C)[C@H]3CC(=O)C4=CCC[C@@]4(C)[C@]3(C)CC[C@@H]12 | 47.4 | pIC50 [1]: 5.98; pIC50 [2]: 5.02; inhibition [4]: 50.2%
2 | CCC(=O)CC[C@]1(C)C(=O)[C@H](O)C[C@@H]2[C@@]3(C)CC[C@H](OC(C)=O)C(C)(C)[C@@H]3CC[C@]21C | 11.5 | pIC50 [1]: 6.14; pIC50 [2]: 5.20; inhibition [4]: 54.3%
3 | CO[C@H]1CC(=O)[C@]2(C)[C@@H]1[C@H](OC(C)=O)C[C@@H]1[C@@]3(C)CC[C@H](O)C(C)(C)[C@@H]3CC[C@]12C |  | pIC50 [5]: 6.40
4 | CC(=O)[C@H]1CC[C@]2(C)[C@@H]1[C@H](O)C[C@@H]1[C@@]3(C)CCC(=O)OC(C)(C)[C@@H]3CC[C@]12C | 27.6 | 
5 | CC1(C)C=CC[C@]2(C)[C@H]3C[C@@H](O)[C@@H]4[C@@H](O)CC[C@@]4(C)[C@]3(C)CC[C@@H]12 | 40.9 | 
6 | CC1(C)[C@@H](O)CC[C@]2(C)[C@H]3C[C@@H](O)C4=CCC[C@@]4(C)[C@]3(C)CC[C@@H]12 | 33.2 | 
7 | CC(C)(O)[C@@H]1CC[C@]2(C)[C@H](C[C@@H](O)[C@@H]3[C@@H](O)CC[C@]32C)[C@@]1(C)CCCO | 16.1 | 
8 | CC1=C2CC[C@]3(C)[C@@H]2[C@@H](C[C@@H]2[C@@]4(C)CC[C@H](O)C(C)(C)[C@@H]4CC[C@]23C)OCO1 | 15.5 | 
9 | CC(=O)OCO[C@@H]1C[C@@H]2[C@@]3(C)CC[C@H](O)C(C)(C)[C@@H]3CC[C@@]2(C)[C@]2(C)CCC(=O)[C@@H]12 | 20.9 | 
10 | CC(=O)O[C@H]1CC[C@]2(C)[C@H]3C[C@@H](O)[C@@H]4[C@@H](C(C)=O)CC[C@@]4(C)[C@]3(C)CC[C@H]2C1(C)C | 60.9 | pIC50 [5]: 6.34; pIC50 [6]: < 5.00
11 | CC(=O)O[C@H]1CC[C@]2(C)[C@H]3C[C@@H](OC(C)=O)[C@@H]4[C@@H](C(=O)CO)CC[C@@]4(C)[C@]3(C)CC[C@H]2C1(C)C | 20.1 | pIC50 [1]: 6.31; inhibition [4]: 62.6%
12 | CC(=O)O[C@H]1CC[C@]2(C)[C@H]3C[C@@H](OC(C)=O)[C@@H]4[C@@H](C(=O)CCCC(C)C)CC[C@@]4(C)[C@]3(C)CC[C@H]2C1(C)C | 10.8 | pIC50 [1]: 7.00; inhibition [4]: 81.1%
13 | COCO[C@H]1CC[C@]2(C)[C@H]3C[C@@H](OCOC)[C@@H]4[C@@H](C(C)=O)CC[C@@]4(C)[C@]3(C)CC[C@H]2C1(C)C | 11.5 | 
14 | CC1(C)CCC[C@]2(C)[C@H]3C[C@@H](O)[C@@H]4[C@@H](O)CC[C@@]4(C)[C@]3(C)CC[C@@H]12 | 6.25 | 
15 | CC(=O)O[C@H]1CC[C@]2(C)[C@H]3C[C@@H](OC(C)=O)[C@@H]4[C@@H](O)CC[C@@]4(C)[C@]3(C)CC[C@H]2C1(C)C | 13.3 | 
16 | CC(C)(O)[C@@H]1CC[C@]2(C)[C@H](C[C@@H](O)[C@@H]3[C@@H](O)CC[C@]32C)[C@@]1(C)CCC(=O)O | 20.8 | 
17 | CC(=O)O[C@H]1CC[C@]2(C)[C@H]3C[C@@H](OC(C)=O)[C@@H]4[C@@H](C(C)=O)CC[C@@]4(C)[C@]3(C)CC[C@H]2C1(C)C | 40.9 | pIC50 [1]: 6.61; inhibition [4]: 69.4%
18 | CC1(C)[C@@H](O)CC[C@]2(C)[C@H]3C[C@@H](O)[C@]45O[C@H]4CC[C@@]5(C)[C@]3(C)CC[C@@H]12 | 16.9 | 
19 | CC1(C)[C@@H](O)CC[C@]2(C)[C@H]3C[C@H]4OC[C@H]5CC[C@](C)([C@@H]54)[C@]3(C)CC[C@@H]12 | 44.9 | 
20 | CC(=O)O[C@H]1CC[C@]2(C)[C@H]3C[C@@H](OC(C)=O)C4=CCC[C@@]4(C)[C@]3(C)CC[C@H]2C1(C)C | 15.4 | 
21 | CC(=O)O[C@H]1CC[C@]2(C)[C@H]3C[C@@H](OC(C)=O)[C@@H]4C(=O)CC[C@@]4(C)[C@]3(C)CC[C@H]2C1(C)C | 12.5 | 
22 | CCC(=O)CC[C@]1(C)C(=O)[C@H](OC(C)=O)C[C@@H]2[C@@]3(C)CC[C@H](OC(C)=O)C(C)(C)[C@@H]3CC[C@]21C | 13.3 | 
23 | CC(=O)O[C@H]1CC[C@]2(C)[C@H]3C[C@@H](OC(C)=O)[C@@H]4[C@@H](C(=O)CF)CC[C@@]4(C)[C@]3(C)CC[C@H]2C1(C)C | 11.9 | 
24 | CC1=CC[C@@]2(CC1O)[C@@H](C(=O)O)CC[C@H]2C(C)C (stereo partly drawn) |  | pIC50 [7]: 7.89; pIC50 [8]: 6.34
25 | CC(=O)O[C@H]1CC[C@]2(C)[C@H]3C[C@@H](OC(C)=O)[C@@H]4[C@@H](Cl)CC[C@@]4(C)[C@]3(C)CC[C@H]2C1(C)C | 8.02 | 

Now from value to compound, other results behind:

Row | inhibition [3] [%] | Compound | other results
26 | 58.4 | CC1(C)[C@@H](O)CC[C@]2(C)[C@H]3C[C@@H](O)[C@@H]4CCC[C@@]4(C)[C@]3(C)CC[C@@H]12 | pIC50 [5]: 6.23; pIC50 [6]: < 4.00
27 | 15.1 | CC1(C)[C@@H](O)CC[C@]2(C)[C@H]3C[C@@H](O)[C@@H]4[C@@H](C(=O)O)CC[C@@]4(C)[C@]3(C)CC[C@@H]12 | 
28 | 7.69 | COC(=O)[C@H]1CC[C@]2(C)[C@@H]1[C@H](O)C[C@@H]1[C@@]3(C)CC[C@H](O)C(C)(C)[C@@H]3CC[C@]12C | 
29 | 32.2 | CC1(C)[C@@H](O)CC[C@]2(C)[C@H]3C[C@@H](O)[C@@H]4[C@@H](C(=O)CO)CC[C@@]4(C)[C@]3(C)CC[C@@H]12 | 
30 | 65.7 | CC(=O)[C@]1(O)CC[C@]2(C)[C@@H]1[C@H](O)C[C@@H]1[C@@]3(C)CC[C@H](O)C(C)(C)[C@@H]3CC[C@]12C | pIC50 [5]: 6.22; pIC50 [6]: < 5.00
31 | 28.2 | CC1(C)[C@@H](O)CC[C@]2(C)[C@H]3C[C@@H](O)[C@@H]4[C@@H](O)CC[C@@]4(C)[C@]3(C)CC[C@@H]12 | 
32 | 57.9 | CC1(C)[C@@H](O)CC[C@]2(C)[C@H]3C[C@@H](O)[C@@H]4[C@@H](CO)CC[C@@]4(C)[C@]3(C)CC[C@@H]12 | pIC50 [5]: 6.32; pIC50 [6]: < 5.00
33 | 35.8 | CC1(C)[C@@H](O)CC[C@]2(C)[C@H]3C[C@@H](O)[C@@H]4[C@@H](Cl)CC[C@@]4(C)[C@]3(C)CC[C@@H]12 | 
34 | 27.1 | CC(=O)[C@H]1CC[C@]2(C)[C@@H]1[C@H](O)C[C@@H]1[C@@]3(C)CC[C@H](O)C(C)(C)[C@@H]3CC[C@]12C | 
35 | 79 | CC(=O)O[C@H]1CC[C@]2(C)[C@H]3C[C@@H](O)[C@@H]4[C@@H](O)CC[C@@]4(C)[C@]3(C)CC[C@H]2C1(C)C | pIC50 [5]: 6.67; pIC50 [1]: 6.00; pIC50 [6]: < 5.00; pIC50 [2]: < 5.00; inhibition [4]: 51.6%
36 | 17.3 | CC(C)CCCC(=O)[C@H]1CC[C@]2(C)[C@@H]1[C@H](O)C[C@@H]1[C@@]3(C)CC[C@H](O)C(C)(C)[C@@H]3CC[C@]12C | 
37 | 47 | CC1(C)[C@@H](O)CC[C@]2(C)[C@H]3C[C@@H](O)[C@@H]4[C@H](O)CC[C@@]4(C)[C@]3(C)CC[C@@H]12 | 

— ChEMBL document CHEMBL4052631, “Synthesis of selective 11β-HSD1 inhibitors based on dammarane scaffold” (Eur J Med Chem, 2017)
